# Key:
# [1] = test system: ICR mice; test: Test of acute toxicity by oral administration to mouse; format: in vivo; conditions: 1% hydroxypropylmethylcellulose, observed 2 weeks
# Method: To test acute toxicity of the compounds of the present invention, the following experiment was carried out.
# A mixture of 1% hydroxypropylmethylcellulose and 200 mg of one selected from the group consisting of the compounds 10, 12, 16, 17, 20, 22, 24 and 27 was administrated to 5 ICR mice (5-Week old males, 20 g±2 g by weight). And then lethality for 2 weeks, weight, symptoms etc. was watched to determine Minimum Lethal Dose (MLD, mg/kg). […]
# [2] = test system: vancomycin resistant Enterococci (VRE); test: Assay for in vitro antibacterial activity, agar dilution (VRE); conditions: Enterococcus, read-out: Minimum Inhibitory Concentration (MIC50) VRE
# [3] = test system: methicillin resistant Staphylococcus aureus (MRSA); test: Assay for in vitro antibacterial activity, agar dilution (MRSA); conditions: read-out: Minimum Inhibitory Concentration (MIC50) MRSA
# [4] = Assay for solubility in distilled water (turbidity by naked eye); format: physicochemical; conditions: average of three runs; for solubility at 2 min: thermodynamic from solid
# Method: The derivatives of the present invention were added to 200 μl of distilled water and then the solution was stirred for 2 minutes. The turbidity of the solution was watched through naked eye.
# When the derivatives were not dissolved completely, 50 μl of distilled water was added to the solution and then the turbidity of the solution was assayed in the above manner to find a point of becoming transparent solution.
# When 2 mg of the derivatives was first added to distilled water and completely dissolved so that the solution became transparent, 2 mg of the derivatives was added more to the solution and then state of the solution was watched. The derivatives of the present invention were added to the five times and then solubility of the solution was assayed for. The assay for solubility was carried out the three times repeatedly in the above method and the results were averaged.
Compound,Minimum Lethal Dose (MLD) [1] [mg/kg],MIC50 [2] [µg/mL],MIC50 [3] [µg/mL],solubility at 2 min [4] [µg/mL],Solubility [4] [µg/mL],Solubility ([4]; trifluoroacetic acid) [µg/mL]
"Cn1nnc(-c2ccc(-c3ccc(N4C[C@H](CO)OC4=O)cc3F)cn2)n1 [Compound 10, (R)-3-(4-(2-(2-methyltetrazol-5-yl)pyridin-5-yl)-3-fluorophenyl)-5-hydroxymethyl oxazolidin-2-one]",>1000,0.25,0.5,10,–,–
"Cn1nnc(-c2ccc(-c3ccc(N4C[C@H](COC(=O)CN)OC4=O)cc3F)cn2)n1 [Compound 12, (R)-3-(4-(2-(2-methyltetrazol-5-yl)pyridin-5-yl)-3-fluorophenyl)-5-glycyloxymethyl oxazolidin-2-one trifluoroacetic acid]",>1000,–,–,–,28000,–
"Cc1nnc(-c2ccc(-c3ccc(N4C[C@H](CO)OC4=O)cc3F)cn2)o1 [Compound 16, (R)-3-(4-(2-(2-methyl-[1,3,4]oxadiazol-5-yl)pyridin-5-yl)-3-fluorophenyl)-5-hydroxymethyl oxazolidin-2-one]",>1000,1,0.5,20,–,–
"O=C1O[C@@H](CO)CN1c1ccc(-c2ccc(-n3cncn3)nc2)c(F)c1 [Compound 17, (R)-3-(4-(2-[1,2,4]triazol-1-ylpyridin-5-yl)-3-fluorophenyl)-5-hydroxymethyl oxazolidin-2-one]",>1000,1,1,–,–,–
"CC(C)[C@H](N)C(=O)OC[C@H]1CN(c2ccc(-c3ccc(-c4nnn(C)n4)nc3)c(F)c2)C(=O)O1 [Compound 20, (R)-3-(4-(2-(2-methyltetrazol-5-yl)pyridin-5-yl)-3-fluorophenyl)-5-(L-valyloxy)methyl oxazolidin-2-one trifluoroacetic acid]",>1000,–,–,–,4700,–
"NCC(=O)OC[C@H]1CN(c2ccc(-c3ccc(-n4ccnn4)nc3)c(F)c2)C(=O)O1 [Compound 22, (R)-3-(4-(2-([1,2,3]triazol-1-yl)pyridin-5-yl)-3-fluorophenyl)-5-glycyloxymethyl oxazolidin-2-one trifluoroacetic acid]",>1000,1,1,–,–,–
"O=C1O[C@@H](CO)CN1c1ccc(-c2ccc(-n3ccnn3)nc2)c(F)c1 [Compound 24, (R)-3-(4-(2-([1,2,3]triazol-1-yl)pyridin-5-yl)-3-fluorophenyl)-5-hydroxymethyl oxazolidin-2-one]",>1000,0.5,0.5,–,–,–
"Cc1nnc(-c2ccc(-c3ccc(N4C[C@H](COC(=O)CN)OC4=O)cc3F)cn2)o1 [Compound 27, (R)-3-(4-(2-(2-methyl-[1,3,4]oxadiazole-5-yl)pyridin-5-yl)-3-fluorophenyl)-5-glycyloxymethyl oxazolidin-2-one trifluoroacetic acid]",>1000,–,–,> 50000,–,–
"CC(C)[C@H](N)C(=O)OC[C@H]1CN(c2ccc(-c3ccc(-c4nnn(C)n4)nc3)c(F)c2)C(=O)O1.Cl [Compound 43, (R)-3-(4-(2-(2-methyltetrazol-5-yl)pyridin-5-yl)-3-fluorophenyl)-5-(L-valyloxy)methyl oxazolidin-2-one hydrochloride]",–,0.25,0.5,–,4200,–
"C[C@H](N)C(=O)OC[C@H]1CN(c2ccc(-c3ccc(-c4nnn(C)n4)nc3)c(F)c2)C(=O)O1.Cl [Compound 44, (R)-3-(4-(2-(2-methyltetrazol-5-yl)pyridin-5-yl)-3-fluorophenyl)-5-(L-alanyloxy)methyl oxazolidin-2-one hydrochloride]",–,0.25,0.5,> 50000,–,–
"Cl.Cn1nnc(-c2ccc(-c3ccc(N4C[C@H](COC(=O)CN)OC4=O)cc3F)cn2)n1 [Compound 45, (R)-3-(4-(2-(2-methyltetrazol-5-yl)pyridin-5-yl)-3-fluorophenyl)-5-glycyloxymethyl oxazolidin-2-one hydrochloride]",–,0.25,0.5,–,12000,–
"Cl.Cn1nnc(-c2ccc(-c3ccc(N4C[C@H](COC(=O)[C@@H]5CCCN5)OC4=O)cc3F)cn2)n1 [Compound 47, (R)-3-(4-(2-(2-methyltetrazol-5-yl)pyridin-5-yl)-3-fluorophenyl)-5-(L-prolinyloxy)methyl oxazolidin-2-one hydrochloride]",–,0.25,0.5,2000,–,–
"Cc1nnc(-c2ccc(-c3ccc(N4C[C@H](COC(=O)CN)OC4=O)cc3F)cn2)o1.Cl [Compound 48, (R)-3-(4-(2-(2-methyl-[1,3,4]oxadiazol-5-yl)pyridin-5-yl)-3-fluorophenyl)-5-glycyloxymethyl oxazolidin-2-one hydrochloride]",–,1,0.5,> 50000,–,–
"Cn1nnc(-c2ccc(-c3ccc(N4C[C@H](COC(=O)CCN)OC4=O)cc3F)cn2)n1 [Compound 49, (R)-3-(4-(2-(2-methyltetrazol-5-yl)pyridin-5-yl)-3-fluorophenyl)-5-(β-alanyloxy)methyl oxazolidin-2-one trifluoroacetic acid]",–,0.25,0.5,–,–,2600
"Cc1nnc(-c2ccc(-c3ccc(N4C[C@H](COC(=O)[C@H](C)N)OC4=O)cc3F)cn2)o1.Cl [Compound 52, (R)-3-(4-(2-(2-methyl-[1,3,4]oxadiazol-5-yl)pyridin-5-yl)-3-fluorophenyl)-5-(L-alanyloxy)methyl oxazolidin-2-one hydrochloride]",–,1,0.5,> 50000,–,–
"Cc1nnc(-c2ccc(-c3ccc(N4C[C@H](COC(=O)[C@@H](N)C(C)C)OC4=O)cc3F)cn2)o1.Cl [Compound 54, (R)-3-(4-(2-(2-methyl-[1,3,4]oxadiazol-5-yl)pyridin-5-yl)-3-fluorophenyl)-5-(L-valyloxy)methyl oxazolidin-2-one hydrochloride]",–,1,0.5,2900,–,–
"Cc1nnc(-c2ccc(-c3ccc(N4C[C@H](COC(=O)[C@@H]5CCCN5)OC4=O)cc3F)cn2)o1.Cl [Compound 56, (R)-3-(4-(2-(2-methyl-[1,3,4]oxadiazol-5-yl)pyridin-5-yl)-3-fluorophenyl)-5-(L-prolinyloxy)methyl oxazolidin-2-one hydrochloride]",–,1,0.5,> 50000,–,–
"Cc1nnc(-c2ccc(-c3ccc(N4C[C@H](COC(=O)CCN)OC4=O)cc3F)cn2)o1.Cl [Compound 58, (R)-3-(4-(2-(2-methyl-[1,3,4]oxadiazol-5-yl)pyridin-5-yl)-3-fluorophenyl)-5-(β-alanyloxy)methyl oxazolidin-2-one hydrochloride]",–,1,0.5,5500,–,–
"Cn1nnc(-c2ccc(-c3ccc(N4C[C@H](COP(=O)([O][Na+])[O][Na+])OC4=O)cc3F)cn2)n1 [Compound 59, (R)-[3-(4-(2-(2-methyltetrazol-5-yl)pyridin-5-yl)-3-fluorophenyl)-2-oxo-5-oxazolidinyl]methyl disodiumphosphate]",–,0.25,0.5,> 50000,–,–
"Cc1nnc(-c2ccc(-c3ccc(N4C[C@H](COP(=O)([O][Na+])[O][Na+])OC4=O)cc3F)cn2)o1 [Compound 60, (R)-[3-(4-(2-(2-methyl-[1,3,4]oxadiazol-5-yl)pyridin-5-yl)-3-fluorophenyl)-2-oxo-5-oxazolidinyl]methyl disodiumphosphate]",–,1,0.5,> 50000,–,–
"Cn1nnnc1-c1ccc(-c2ccc(N3C[C@H](COC(=O)CCN)OC3=O)cc2F)cn1 [Compound 68, (R)-3-(4-(2-(1-methyltetrazol-5-yl)pyridin-5-yl)-3-fluorophenyl)-5-(β-alanyloxy)methyl oxazolidin-2-one trifluoroacetic acid]",–,–,–,2600,–,–
"Cn1nnnc1-c1ccc(-c2ccc(N3C[C@H](COP(=O)([O-])[O-])OC3=O)cc2F)cn1.[Na+].[Na+] [Compound 70, (R)-[3-(4-(2-(1-methyltetrazol-5-yl)pyridin-5-yl)-3-fluorophenyl)-2-oxo-5-oxazolidinyl]methyl disodiumphosphate]",–,0.25,0.5,> 50000,–,–
